Data taken from US11661426B2, “Imidazole-containing inhibitors of ALK2 kinase” (BioCryst Pharmaceuticals, Inc., priority 2017, dated 2023).

Biological target: ALK2 (Homo sapiens (Human), UniProt Q04771)
Experiment: ALK2 inhibition, LanthaScreen Eu Kinase Binding Assay (ThermoFisher Scientific / Life Technologies)
Conditions: read-out: Measured Ki (IC50) Value for Compounds: IC50
Description: Biochemical assays to measure the inhibitory effects of the compounds were performed by ThermoFisher Scientific (Life Technologies). ALK2 inhibition was tested using LanthaScreen™ Eu Kinase Binding Assay screening protocol.

Chain of ALK2 (Q04771 21-509): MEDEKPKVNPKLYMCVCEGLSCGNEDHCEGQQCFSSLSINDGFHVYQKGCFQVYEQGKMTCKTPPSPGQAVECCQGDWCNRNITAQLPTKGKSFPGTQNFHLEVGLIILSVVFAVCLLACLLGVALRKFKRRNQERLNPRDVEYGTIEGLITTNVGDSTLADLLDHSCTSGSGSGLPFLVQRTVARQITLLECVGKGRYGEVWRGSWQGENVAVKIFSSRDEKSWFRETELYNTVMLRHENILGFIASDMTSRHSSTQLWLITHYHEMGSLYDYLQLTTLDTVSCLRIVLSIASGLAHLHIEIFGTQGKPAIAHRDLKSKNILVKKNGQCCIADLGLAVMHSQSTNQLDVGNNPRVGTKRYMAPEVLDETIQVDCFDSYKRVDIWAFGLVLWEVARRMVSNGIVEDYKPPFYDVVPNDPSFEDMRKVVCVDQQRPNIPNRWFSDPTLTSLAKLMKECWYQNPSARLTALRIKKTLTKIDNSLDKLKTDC

| Compound | IC50 [nM] |
| --- | --- |
| OC[C@@H]1CCCN1c1nc(Nc2cn(C3CCCCC3)cn2)c2cccn2n1 [Compound 28c, (S)-(1-(4-((1-cyclohexyl-1H-imidazol-4-yl)amino)pyrrolo[2,1-f][1,2,4]triazin-2-yl)pyrrolidin-2-yl)methanol] | 100 to 1000 |
| c1ccc(C2CCCN2c2nc(Nc3cn(C4CCCCC4)cn3)c3cccn3n2)nc1 (centres unmarked) [Compound 29a, N-(1-cyclohexyl-1H-imidazol-4-yl)-2-(2-(pyridin-2-yl)pyrrolidin-1-yl)pyrrolo[2,1-f][1,2,4]triazin-4-amine] | 100 to 1000 |
| c1ccc(C2CCCN2c2nc(Nc3cn(C4CC4)cn3)c3cccn3n2)cc1 (centres unmarked) [Compound 30a, N-(1-cyclopropyl-1H-imidazol-4-yl)-2-(2-phenylpyrrolidin-1-yl)pyrrolo[2,1-f][1,2,4]triazin-4-amine] | 100 to 1000 |
| OC[C@@H]1CCCN1c1nc(Nc2cn(-c3ccccc3)cn2)c2ccsc2n1 [Compound 31c, (S)-(1-(4-((1-phenyl-1H-imidazol-4-yl)amino)thieno[2,3-d]pyrimidin-2-yl)pyrrolidin-2-yl)methanol] | < 100 |
| OC[C@@H]1CCCN1c1nc(Nc2cn(-c3ccccc3)cn2)c2ccccc2n1 [Compound 32a, (S)-(1-(4-((1-phenyl-1H-imidazol-4-yl)amino)quinazolin-2-yl)pyrrolidin-2-yl)methanol] | < 100 |
| c1ccc(-n2cnc(Nc3nc(N4CCCC4c4ccccn4)nc4ccoc34)c2)cc1 (centres unmarked) [Compound 33a, N-(1-phenyl-1H-imidazol-4-yl)-2-(2-(pyridin-2-yl)pyrrolidin-1-yl)furo[3,2-d]pyrimidin-4-amine] | < 100 |
| CN1CCN(c2nc(Nc3cn(C)cn3)c3cccn3n2)CC1 [Compound 34a, N-(1-methyl-1H-imidazol-4-yl)-2-(4-methylpiperazin-1-yl)pyrrolo[2,1-f][1,2,4]triazin-4-amine] | > 1000 |
| CN1CCN(c2nc(Nc3cn(-c4ccccc4)cn3)c3cccn3n2)CC1 [Compound 35a, 2-(4-methylpiperazin-1-yl)-N-(1-phenyl-1H-imidazol-4-yl)pyrrolo[2,1-f][1,2,4]triazin-4-amine] | 100 to 1000 |
| OC[C@@H]1CCCN1c1nc(Nc2cn(-c3ccccc3F)cn2)c2cccn2n1 [Compound 36c, (S)-(1-(4-((1-(2-fluorophenyl)-1H-imidazol-4-yl)amino)pyrrolo[2,1-f][1,2,4]triazin-2-yl)pyrrolidin-2-yl)methanol] | < 100 |
| c1ccc(C2CCCN2c2nc(Nc3cn(C4CCC4)cn3)c3cccn3n2)nc1 (centres unmarked) [Compound 37c, N-(1-cyclobutyl-1H-imidazol-4-yl)-2-(2-(pyridin-2-yl)pyrrolidin-1-yl)pyrrolo[2,1-f][1,2,4]triazin-4-amine] | < 100 |
| OC[C@@H]1CCCN1c1nc(Nc2cn(-c3cnc4ccccc4c3)cn2)c2cccn2n1 [Compound 38c, (S)-(1-(4-((1-(quinolin-3-yl)-1H-imidazol-4-yl)amino)pyrrolo[2,1-f][1,2,4]triazin-2-yl)pyrrolidin-2-yl)methanol] | < 100 |
| OC[C@@H]1CCCN1c1nc(Nc2cn(-c3cccnc3)cn2)c2cccn2n1 [Compound 39c, (S)-(1-(4-((1-(pyridin-3-yl)-1H-imidazol-4-yl)amino)pyrrolo[2,1-f][1,2,4]triazin-2-yl)pyrrolidin-2-yl)methanol] | < 100 |
| c1ccc(C2CCCN2c2nc(Nc3cn(-c4ccccc4)cn3)c3occc3n2)cc1 (centres unmarked) [Compound 40a, N-(1-phenyl-1H-imidazol-4-yl)-2-(2-phenylpyrrolidin-1-yl)furo[3,2-d]pyrimidin-4-amine] | < 100 |
| Cc1csc2c(Nc3cn(-c4ccccc4)cn3)nc(N3CCC[C@H]3CO)nc12 [Compound 41c, (S)-(1-(7-methyl-4-((1-phenyl-1H-imidazol-4-yl)amino)thieno[3,2-d]pyrimidin-2-yl)pyrrolidin-2-yl)methanol] | < 100 |
| Cc1cc2nc(N3CCC[C@H]3CO)nc(Nc3cn(-c4ccc(F)cc4)cn3)c2s1 [Compound 42b, (S)-(1-(4-((1-(4-fluorophenyl)-1H-imidazol-4-yl)amino)-6-methylthieno[3,2-d]pyrimidin-2-yl)pyrrolidin-2-yl)methanol] | < 100 |
| OC[C@@H]1CCCN1c1nc(Nc2cn(C3CCC3)cn2)c2cccn2n1 [Compound 43a, (S)-(1-(4-((1-cyclobutyl-1H-imidazol-4-yl)amino)pyrrolo[2,1-f][1,2,4]triazin-2-yl)pyrrolidin-2-yl)methanol] | < 100 |
| OC[C@@H]1CCCN1c1nc(Nc2cn(-c3cccc(F)c3)cn2)c2cccn2n1 [Compound 44c, (S)-(1-(4-((1-(3-fluorophenyl)-1H-imidazol-4-yl)amino)pyrrolo[2,1-f][1,2,4]triazin-2-yl)pyrrolidin-2-yl)methanol] | < 100 |
| COc1cc(F)c(CC(=O)N2CCN(c3nc(Nc4cn(-c5ccccc5)cn4)c4ccsc4n3)CC2)c(F)c1 [Compound 45d, 2-(2,6-difluoro-4-methoxyphenyl)-1-(4-(4-((1-phenyl-1H-imidazol-4-yl)amino)thieno[2,3-d]pyrimidin-2-yl)piperazin-1-yl)ethanone] | 100 to 1000 |

| Compound | IC50 [nM] |
| --- | --- |
| c1ccc([C@@H]2CCCN2c2nc(Nc3cn(C4CCCCC4)cn3)c3cccn3n2)cc1 [Compound 46a, (S)—N-(1-cyclohexyl-1H-imidazol-4-yl)-2-(2-phenylpyrrolidin-1-yl)pyrrolo[2,1-f][1,2,4]triazin-4-amine] | 100 to 1000 |
| CC(=O)c1cccc(-n2cnc(Nc3nc(N4CCC[C@H]4CO)nn4cccc34)c2)c1 [Compound 47c, (S)-1-(3-(4-((2-(2-(hydroxymethyl)pyrrolidin-1-yl)pyrrolo[2,1-f][1,2,4]triazin-4-yl)amino)-1H-imidazol-1-yl)phenyl)ethanone] | < 100 |
| OC[C@@H]1CCCN1c1nc(Nc2cn(-c3ccc(O)cc3)cn2)c2cccn2n1 [Compound 48c, (S)-4-(4-((2-(2-(hydroxymethyl)pyrrolidin-1-yl)pyrrolo[2,1-f][1,2,4]triazin-4-yl)amino)-1H-imidazol-1-yl)phenol] | < 100 |
| OC[C@@H]1CCCN1c1nc(Nc2cn(-c3ccc(Cl)cc3)cn2)c2cccn2n1 [Compound 49c, (S)-(1-(4-((1-(4-chlorophenyl)-1H-imidazol-4-yl)amino)pyrrolo[2,1-f][1,2,4]triazin-2-yl)pyrrolidin-2-yl)methanol] | < 100 |
| OC[C@@H]1CCCN1c1nc(Nc2cn(C3CCCC3)cn2)c2cccn2n1 [Compound 50c, (S)-(1-(4-((1-cyclopentyl-1H-imidazol-4-yl)amino)pyrrolo[2,1-f][1,2,4]triazin-2-yl)pyrrolidin-2-yl)methanol] | < 100 |
| COc1cc(F)c(CC(=O)N2CCN(c3nc(Nc4cn(C)cn4)c4cccn4n3)CC2)c(F)c1 [Compound 51a, 2-(2,6-difluoro-4-methoxyphenyl)-1-(4-(4-((1-methyl-1H-imidazol-4-yl)amino)pyrrolo[2,1-f][1,2,4]triazin-2-yl)piperazin-1-yl)ethanone] | 100 to 1000 |
| COc1cc(F)c(CC(=O)N2CCN(c3nc(Nc4cn(-c5ccccc5)cn4)c4cccn4n3)CC2)c(F)c1 [Compound 52a, 2-(2,6-difluoro-4-methoxyphenyl)-1-(4-(4-((1-phenyl-1H-imidazol-4-yl)amino)pyrrolo[2,1-f][1,2,4]triazin-2-yl)piperazin-1-yl)ethanone] | 100 to 1000 |
| Cn1cnc(Nc2nc(N3CCN(C(=O)Cc4ccccc4)CC3)nn3cccc23)c1 [Compound 53b, 1-(4-(4-((1-methyl-1H-imidazol-4-yl)amino)pyrrolo[2,1-f][1,2,4]triazin-2-yl)piperazin-1-yl)-2-phenylethanone] | 100 to 1000 |
| CC(C)(C)OC(=O)N1CCN(c2nc(Nc3cn(-c4ccccc4)cn3)c3sccc3n2)CC1 [Compound 54a, tert-butyl 4-(4-((1-phenyl-1H-imidazol-4-yl)amino)thieno[3,2-d]pyrimidin-2-yl)piperazine-1-carboxylate] | < 100 |
| COc1ccc(-n2cnc(Nc3nc(N4CCC[C@H]4CO)nn4cccc34)c2)cc1 [Compound 55c, (S)-(1-(4-((1-(4-methoxyphenyl)-1H-imidazol-4-yl)amino)pyrrolo[2,1-f][1,2,4]triazin-2-yl)pyrrolidin-2-yl)methanol] | < 100 |
| COc1cccc(-n2cnc(Nc3nc(N4CCC[C@H]4CO)nn4cccc34)c2)c1 [Compound 56c, (S)-(1-(4-((1-(3-methoxyphenyl)-1H-imidazol-4-yl)amino)pyrrolo[2,1-f][1,2,4]triazin-2-yl)pyrrolidin-2-yl)methanol] | < 100 |
| COc1cc(-n2cnc(Nc3nc(N4CCC[C@H]4CO)nn4cccc34)c2)cc(OC)c1OC [Compound 57c, (S)-(1-(4-((1-(3,4,5-trimethoxyphenyl)-1H-imidazol-4-yl)amino)pyrrolo[2,1-f][1,2,4]triazin-2-yl)pyrrolidin-2-yl)methanol] | < 100 |
| OC[C@@H]1CCCN1c1nc(Nc2cn(-c3ccc(F)cc3)cn2)c2sccc2n1 [Compound 58b, (S)-(1-(4-((1-(4-fluorophenyl)-1H-imidazol-4-yl)amino)thieno[3,2-d]pyrimidin-2-yl)pyrrolidin-2-yl)methanol] | < 100 |
| N#CC1CC(n2cnc(Nc3nc(N4CCCC4c4ccccn4)nn4cccc34)c2)C1 (centres unmarked) [Compound 59c, 3-(4-((2-(2-(pyridin-2-yl)pyrrolidin-1-yl)pyrrolo[2,1-f][1,2,4]triazin-4-yl)amino)-1H-imidazol-1-yl)cyclobutanecarbonitrile] | 100 to 1000 |
| OC[C@@H]1CCCN1c1nc(Nc2cn(-c3ccc(F)cc3)cn2)c2ccsc2n1 [Compound 60b, (S)-(1-(4-((1-(4-fluorophenyl)-1H-imidazol-4-yl)amino)thieno[2,3-d]pyrimidin-2-yl)pyrrolidin-2-yl)methanol] | < 100 |
| CC(C)(C)CC(=O)N1CCN(c2nc(Nc3cn(-c4ccccc4)cn3)c3ccsc3n2)CC1 [Compound 61b, 3,3-dimethyl-1-(4-(4-((1-phenyl-1H-imidazol-4-yl)amino)thieno[2,3-d]pyrimidin-2-yl)piperazin-1-yl)butan-1-one] | < 100 |
| CCN(CCO)c1nc(Nc2cn(-c3ccccc3)cn2)c2ccsc2n1 [Compound 62b, 2-(ethyl(4-(1-phenyl-1H-imidazol-4-ylamino)thieno[2,3-d]pyrimidin-2-yl)amino)ethanol] | 100 to 1000 |
